Reference: article PMC5574958, “Radiosynthesis and Preclinical Evaluation of [^18F]F-DPA, A Novel Pyrazolo[1,5a]pyrimidine Acetamide TSPO Radioligand, in Healthy Sprague Dawley Rats” (Molecular Imaging and Biology, 2017)

Experiment: Ex vivo biodistribution
Format: in vivo, Sprague Dawley rats
Settings: for Uptake of fluorine-18-radioactivity, Harderian gland / Uptake of fluorine-18-radioactivity, Brain / Uptake of fluorine-18-radioactivity, Brown fat / Uptake of fluorine-18-radioactivity, Eye x2 / Uptake of fluorine-18-radioactivity, Injection site (tail) / Uptake of fluorine-18-radioactivity, Large int. Wall + contents / Uptake of fluorine-18-radioactivity, Liver / Uptake of fluorine-18-radioactivity, Lung / Uptake of fluorine-18-radioactivity, Muscle / Uptake of fluorine-18-radioactivity, Salivary x2 / Uptake of fluorine-18-radioactivity, Small int. wall + contents / Uptake of fluorine-18-radioactivity, Stomach wall + contents / Uptake of fluorine-18-radioactivity, Testis: mean, n = 3
Procedure: After sacrifice (5, 15, 30, 60, and 90 min after injection, n = 3, for every time point and radiotracer), the blood was collected into Li-heparin tubes and transcardial perfusion with saline was conducted rapidly in order to eliminate the blood from the whole body. Following this, the organs of the animals were collected, individually weighed, and the radioactivity was measured using a gamma counter (Wizard^2 3 × 3″, PerkinElmer, Turku, Finland). The decay-corrected radioactivity is reported as percentage of injected dose per gram (%ID/g).

Uptake of fluorine-18-radioactivity, Harderian gland (5 min after injection): 0.54 %ID/g tissue
Uptake of fluorine-18-radioactivity, Harderian gland (15 min after injection): 0.59 %ID/g tissue
Uptake of fluorine-18-radioactivity, Harderian gland (30 min after injection): 0.62 %ID/g tissue
Uptake of fluorine-18-radioactivity, Harderian gland (60 min after injection): 0.83 %ID/g tissue
Uptake of fluorine-18-radioactivity, Harderian gland (90 min after injection): 0.55 %ID/g tissue
Uptake of fluorine-18-radioactivity, Brain (5 min after injection): 0.23 %ID/g tissue
Uptake of fluorine-18-radioactivity, Brain (15 min after injection): 0.17 %ID/g tissue
Uptake of fluorine-18-radioactivity, Brain (30 min after injection): 0.09 %ID/g tissue
Uptake of fluorine-18-radioactivity, Brain (60 min after injection): 0.07 %ID/g tissue
Uptake of fluorine-18-radioactivity, Brain (90 min after injection): 0.06 %ID/g tissue
Uptake of fluorine-18-radioactivity, Brown fat (5 min after injection): 0.28 %ID/g tissue
Uptake of fluorine-18-radioactivity, Brown fat (15 min after injection): 0.43 %ID/g tissue
Uptake of fluorine-18-radioactivity, Brown fat (30 min after injection): 1.11 %ID/g tissue
Uptake of fluorine-18-radioactivity, Brown fat (60 min after injection): 0.44 %ID/g tissue
Uptake of fluorine-18-radioactivity, Brown fat (90 min after injection): 0.95 %ID/g tissue
Blood radioactivity compared with [^18F]DPA-714 (ex vivo %ID/g, two-tailed unpaired t test, P ≤ 0.006): significantly lower
Uptake of fluorine-18-radioactivity, Eye x2 (eye x2, 5 min after injection): 0.32 %ID/g tissue
Uptake of fluorine-18-radioactivity, Eye x2 (eye x2, 15 min after injection): 0.29 %ID/g tissue
Uptake of fluorine-18-radioactivity, Eye x2 (eye x2, 30 min after injection): 0.21 %ID/g tissue
Uptake of fluorine-18-radioactivity, Eye x2 (eye x2, 60 min after injection): 0.16 %ID/g tissue
Uptake of fluorine-18-radioactivity, Eye x2 (eye x2, 90 min after injection): 0.16 %ID/g tissue
Uptake of fluorine-18-radioactivity, Injection site (tail) (5 min after injection): 0.36 %ID/g tissue
Uptake of fluorine-18-radioactivity, Injection site (tail) (15 min after injection): 0.38 %ID/g tissue
Uptake of fluorine-18-radioactivity, Injection site (tail) (30 min after injection): 0.28 %ID/g tissue
Uptake of fluorine-18-radioactivity, Injection site (tail) (60 min after injection): 0.42 %ID/g tissue
Uptake of fluorine-18-radioactivity, Injection site (tail) (90 min after injection): 0.38 %ID/g tissue
Uptake of fluorine-18-radioactivity, Large int. Wall + contents (5 min after injection): 0.30 %ID/g tissue
Uptake of fluorine-18-radioactivity, Large int. Wall + contents (15 min after injection): 0.31 %ID/g tissue
Uptake of fluorine-18-radioactivity, Large int. Wall + contents (30 min after injection): 0.33 %ID/g tissue
Uptake of fluorine-18-radioactivity, Large int. Wall + contents (60 min after injection): 0.29 %ID/g tissue
Uptake of fluorine-18-radioactivity, Large int. Wall + contents (90 min after injection): 0.28 %ID/g tissue
Uptake of fluorine-18-radioactivity, Liver (5 min after injection): 0.77 %ID/g tissue
Uptake of fluorine-18-radioactivity, Liver (15 min after injection): 0.82 %ID/g tissue
Uptake of fluorine-18-radioactivity, Liver (30 min after injection): 0.49 %ID/g tissue
Uptake of fluorine-18-radioactivity, Liver (60 min after injection): 0.43 %ID/g tissue
Uptake of fluorine-18-radioactivity, Liver (90 min after injection): 0.31 %ID/g tissue
Uptake of fluorine-18-radioactivity, Lung (5 min after injection): 5.94 %ID/g tissue
Uptake of fluorine-18-radioactivity, Lung (15 min after injection): 4.04 %ID/g tissue
Uptake of fluorine-18-radioactivity, Lung (30 min after injection): 2.27 %ID/g tissue
Uptake of fluorine-18-radioactivity, Lung (60 min after injection): 1.79 %ID/g tissue
Uptake of fluorine-18-radioactivity, Lung (90 min after injection): 1.47 %ID/g tissue
Uptake of fluorine-18-radioactivity, Muscle (5 min after injection): 0.07 %ID/g tissue
Uptake of fluorine-18-radioactivity, Muscle (15 min after injection): 0.07 %ID/g tissue
Uptake of fluorine-18-radioactivity, Muscle (30 min after injection): 0.09 %ID/g tissue
Uptake of fluorine-18-radioactivity, Muscle (60 min after injection): 0.11 %ID/g tissue
Uptake of fluorine-18-radioactivity, Muscle (90 min after injection): 0.12 %ID/g tissue
Uptake of fluorine-18-radioactivity, Salivary x2 (salivary x2, 5 min after injection): 0.70 %ID/g tissue
Uptake of fluorine-18-radioactivity, Salivary x2 (salivary x2, 15 min after injection): 0.82 %ID/g tissue
Uptake of fluorine-18-radioactivity, Salivary x2 (salivary x2, 30 min after injection): 1.56 %ID/g tissue
Uptake of fluorine-18-radioactivity, Salivary x2 (salivary x2, 60 min after injection): 1.21 %ID/g tissue
Uptake of fluorine-18-radioactivity, Salivary x2 (salivary x2, 90 min after injection): 1.00 %ID/g tissue
Uptake of fluorine-18-radioactivity, Small int. wall + contents (5 min after injection): 1.19 %ID/g tissue
Uptake of fluorine-18-radioactivity, Small int. wall + contents (15 min after injection): 1.47 %ID/g tissue
Uptake of fluorine-18-radioactivity, Small int. wall + contents (30 min after injection): 2.00 %ID/g tissue
Uptake of fluorine-18-radioactivity, Small int. wall + contents (60 min after injection): 1.95 %ID/g tissue
Uptake of fluorine-18-radioactivity, Small int. wall + contents (90 min after injection): 2.59 %ID/g tissue
Uptake of fluorine-18-radioactivity, Stomach wall + contents (5 min after injection): 0.50 %ID/g tissue
Uptake of fluorine-18-radioactivity, Stomach wall + contents (15 min after injection): 0.54 %ID/g tissue
Uptake of fluorine-18-radioactivity, Stomach wall + contents (30 min after injection): 0.93 %ID/g tissue
Uptake of fluorine-18-radioactivity, Stomach wall + contents (60 min after injection): 1.07 %ID/g tissue
Uptake of fluorine-18-radioactivity, Stomach wall + contents (90 min after injection): 0.74 %ID/g tissue
Uptake of fluorine-18-radioactivity, Testis (5 min after injection): 0.21 %ID/g tissue
Uptake of fluorine-18-radioactivity, Testis (15 min after injection): 0.28 %ID/g tissue
Uptake of fluorine-18-radioactivity, Testis (30 min after injection): 0.23 %ID/g tissue
Uptake of fluorine-18-radioactivity, Testis (60 min after injection): 0.26 %ID/g tissue
Uptake of fluorine-18-radioactivity, Testis (90 min after injection): 0.27 %ID/g tissue
SMILES: CCN(CC)C(=O)Cc1c(-c2ccc([18F])cc2)nn2c(C)cc(C)nc12 [[^18F]F-DPA]
Accumulation of radioactivity in the bone (defluorination in vivo) (after the initial uptake at 5 min, up to 90 min): no significant accumulation of radioactivity in the bone
